For 8 compounds, EC50 and Emax results are on record in US12331041B2, “GLP-1 receptor agonists and uses thereof” (Pfizer Inc., priority 2018, dated 2025).

Assay [1] addresses T1, human GLP-1R (Homo sapiens, UniProt P43220, G168S).
T1 construct: expressed in transfected cells
Description: CHO GLP-1R Clone H6 - Assay 1 (HTRF cAMP agonist assay). The class given is cell-based. The note with it: for EC50: CHO Clone H6, high GLP-1R density, cAMP, geometric mean; for Emax: CHO Clone H6, relative to saturating full agonist GLP-1 7-36 (1 μM), arithmetic mean. Put shortly: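 CHO Clone H6 cells stably expressing human GLP-1R (G168S) were plated 48 h, then given compound for 30 min at 37° C in HBSS/0.1% BSA/HEPES with 100 μM IBMX and 1% DMSO. cAMP was measured by HTRF against a standard curve.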

Assay [2] deals with T2, human GLP-1R (Homo sapiens, UniProt P43220, L260F).
T2 construct: expressed in transfected cells; host or cells: CHO Flp-In T-REx, clonal line C6 (pcDNA5-FRT-TO)
T2 sequence (P43220 24-463 L260F): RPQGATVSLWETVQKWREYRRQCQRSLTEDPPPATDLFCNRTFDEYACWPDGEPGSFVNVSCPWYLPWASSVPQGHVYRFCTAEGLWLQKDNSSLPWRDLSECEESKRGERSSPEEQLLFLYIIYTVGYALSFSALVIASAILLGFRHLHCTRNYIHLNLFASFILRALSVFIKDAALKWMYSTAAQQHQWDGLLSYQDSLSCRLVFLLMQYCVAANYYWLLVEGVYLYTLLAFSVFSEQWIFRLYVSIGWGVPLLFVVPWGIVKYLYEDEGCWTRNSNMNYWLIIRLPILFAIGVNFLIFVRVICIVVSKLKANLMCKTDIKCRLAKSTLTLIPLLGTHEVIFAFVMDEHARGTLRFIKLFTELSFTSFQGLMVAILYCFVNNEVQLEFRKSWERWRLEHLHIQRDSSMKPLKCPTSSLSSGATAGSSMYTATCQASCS
Description: CHO GLP-1R Clone C6 - Assay 2 (HTRF cAMP agonist assay). Conditions: for EC50: CHO clone C6, low GLP-1R density, cAMP, geometric mean; for Emax: CHO clone C6, relative to saturating full agonist GLP-1 (1 μM), arithmetic mean. The class given is cell-based.

Counter-ions that a name gives are not always drawn.

T1 sequence (P43220 24-463 G168S): as the sequence (P43220 24-463 L260F) above, with G145S, F237L counted along it

On human GLP-1R [1], `C[C@H]1CN(c2nc(OCc3ccc(Cl)cc3F)ncc2F)CCN1Cc1nc2ccc(C(=O)O)cc2n1C[C@@H]1CCCO1` [Example 71, 2-{[(2S)-4-{2-[(4-chloro-2-fluorobenzyl)oxy]-5-fluoropyrimidin-4-yl}-2-methylpiperazin-1-yl]methyl}-1-[(2S)-tetrahydrofuran-2-ylmethyl]-1H-benzimidazole-6-carboxylic acid] returned an EC50 of 8.9 nM and an Emax of 82%. Further, at human GLP-1R [2], the EC50 worked out at 160 nM and the Emax was found to be 90%.

Consider `O=C(O)c1ccc2nc(CN3CCN(c4nc(OCc5ccc(Cl)cc5F)ncc4F)CC3)n(C[C@@H]3CCO3)c2c1` [Example 72, 2-[(4-{2-[(4-chloro-2-fluorobenzyl)oxy]-5-fluoropyrimidin-4-yl}piperazin-1-yl)methyl]-1-[(2S)-oxetan-2-ylmethyl]-1H-benzimidazole-6-carboxylic acid], for which, on human GLP-1R [1], the EC50 is 6 nM and the maximal response (Emax) amounted to 96%. On human GLP-1R [2], this compound yielded an EC50 of 120 nM and an Emax of 130%.

On human GLP-1R [1], `C[C@H]1CN(c2ccnc(OCc3ccc(Cl)cc3F)n2)CCN1Cc1nc2ccc(C(=O)O)cc2n1C[C@@H]1CCO1` [Example 73, 2-{[(2S)-4-{2-[(4-chloro-2-fluorobenzyl)oxy]pyrimidin-4-yl}-2-methylpiperazin-1-yl]methyl}-1-[(2S)-oxetan-2-ylmethyl]-1H-benzimidazole-6-carboxylic acid] gave an EC50 of 2.4 nM and an Emax of 84%. At human GLP-1R [2], this compound returned an EC50 of 89 nM and an Emax of 100%.

At human GLP-1R [1], `COCCn1c(CN2CCN(c3ccnc(OCc4ccc(Cl)cc4F)n3)[C@H](C)C2)nc2ccc(C(=O)O)cc21` [Example 74, 2-{[(3R)-4-{2-[(4-chloro-2-fluorobenzyl)oxy]pyrimidin-4-yl}-3-methylpiperazin-1-yl]methyl}-1-(2-methoxyethyl)-1H-benzimidazole-6-carboxylic acid, trifluoroacetate salt] returned an EC50 of 500 nM and an Emax of 86%. On human GLP-1R [2], this compound yielded an EC50 of 11000 nM and an Emax of 96%.

As to `C[C@@H]1CN(c2ccnc(OCc3ccc(Cl)cc3F)n2)CCN1Cc1nc2ccc(C(=O)O)cc2n1C[C@@H]1CCO1` [Example 75, ammonium 2-{[(2R)-4-{2-[(4-chloro-2-fluorobenzyl)oxy]pyrimidin-4-yl}-2-methylpiperazin-1-yl]methyl}-1-[(2S)-oxetan-2-ylmethyl]-1H-benzimidazole-6-carboxylate], at human GLP-1R [1], the EC50 came out at 21 nM and the Emax was 88%. Besides, on human GLP-1R [2], a half-maximal response (EC50) required 370 nM and the maximum response (Emax) amounted to 100%.

On human GLP-1R [1], `C[C@@H]1CN(Cc2nc3ccc(C(=O)O)cc3n2C[C@@H]2CCO2)[C@@H](C)CN1c1ccnc(OCc2ccc(Cl)cc2F)n1` [Example 76, ammonium 2-{[(2S,5R)-4-{2-[(4-chloro-2-fluorobenzyl)oxy]pyrimidin-4-yl}-2,5-dimethylpiperazin-1-yl]methyl}-1-[(2S)-oxetan-2-ylmethyl]-1H-benzimidazole-6-carboxylate] gave an EC50 of 12 nM and an Emax of 88%. At human GLP-1R [2], this compound registered an EC50 of 180 nM and an Emax of 100%.

Take `C[C@H]1CN(c2ccnc(OCc3ccc(Cl)cc3F)n2)CCN1Cc1nc2ccc(C(=O)O)nc2n1C[C@@H]1CCO1` [Example 77, 2-{[(2S)-4-{2-[(4-chloro-2-fluorobenzyl)oxy]pyrimidin-4-yl}-2-methylpiperazin-1-yl]methyl}-3-[(2S)-oxetan-2-ylmethyl]-3H-imidazo[4,5-b]pyridine-5-carboxylic acid]: the concentration for a half-maximal effect (EC50) at human GLP-1R [1] came out at 4.4 nM; at human GLP-1R [2], 110 nM. For the same compound, the figures for the Emax on human GLP-1R [1] and on human GLP-1R [2] were 100% and 110%, respectively.

In the case of `C[C@H]1CN(c2ccnc(OCc3ccc(Cl)cc3F)n2)CCN1Cc1nc2ccc(C(=O)O)cc2n1Cc1ncco1` [Example 78, 2-{[(2S)-4-{2-[(4-chloro-2-fluorobenzyl)oxy]pyrimidin-4-yl}-2-methylpiperazin-1-yl]methyl}-1-(1,3-oxazol-2-ylmethyl)-1H-benzimidazole-6-carboxylic acid, trifluoroacetate salt], at human GLP-1R [1], the response was half-maximal at 17 nM (EC50) and the Emax was 79%. Besides, on human GLP-1R [2], the EC50 was determined as 440 nM and the Emax was found to be 81%.

The EC50 is the concentration needed to bring the measured effect to its halfway point. High values mean a need for much substance, low ones an effect from little substance. By Emax is commonly meant the greatest response seen or fitted, relative to the assay's reference.
